Experimental data as given in patent publication US9187411B2, “Leukotriene B4 antagonist compound” (Eli Lilly and Company, priority 2012, dated 2015).
Like-named read-outs stand apart in the source and are kept apart here.

Target: T1, hBLT1 (Homo sapiens, UniProt Q15722)
T1 construct: expressed in transfected cells; membrane preparation
Assay: [3H]-LTB4 binding assay in hBLT1 containing membranes
Conditions: [3H]-LTB4 displacement, hBLT1/CHO-K1 membranes, Ki = IC50/2.7
Experimental: [^3H]-LTB4 and known BLT1 and BLT2 antagonists are used to generate LTB4 displacement curves and IC50 values for compounds of the present invention. Receptor inhibition by compounds of the present invention is determined relative to BLT1 inhibitor and BLT2 inhibitor reference molecules to obtain percent efficacies.
hBLT1 Test Compound Preparations: For hBLT1 assays, test compounds are prepared in DMSO to make up a 10 mM stock solution. […]
hBLT1/CHO-K1 Stable Xcell Line Preparations: Human BLT1 receptor DNA (National Center for Biotechnology Information (NCBI), Reference Sequence NM_181657) is synthesized and cloned into expression vector pcDNA3.1/Hygro(+) (Invitrogen V87020). […] Single clones are isolated and screened for BLT1 expression and function using Western Blot analysis and Fluorometric Imaging Plate Reader (FLIPR®) calcium release assay. […]
[^3H]-LTB4 (30 μL of 1.3 nM, PerkinElmer NET-852) is aliquoted into a 96-well Millipore Multiscreen-filter binding plate (catalogue number MAFBNOB10) which is pre-wetted with Buffer A (50 mM HEPES pH 7.4, 10 mM MgCl2, 10 mM NaCl, 10% glycerol, 1% BSA). […] The plate is allowed to sit for 16 h and then read on a Packard Instrument Company Topcount® for 1 min. […] The IC50s are converted to Ki values by dividing by 2.7 (previously calculated). […]

T1 sequence (Q15722 whole entry): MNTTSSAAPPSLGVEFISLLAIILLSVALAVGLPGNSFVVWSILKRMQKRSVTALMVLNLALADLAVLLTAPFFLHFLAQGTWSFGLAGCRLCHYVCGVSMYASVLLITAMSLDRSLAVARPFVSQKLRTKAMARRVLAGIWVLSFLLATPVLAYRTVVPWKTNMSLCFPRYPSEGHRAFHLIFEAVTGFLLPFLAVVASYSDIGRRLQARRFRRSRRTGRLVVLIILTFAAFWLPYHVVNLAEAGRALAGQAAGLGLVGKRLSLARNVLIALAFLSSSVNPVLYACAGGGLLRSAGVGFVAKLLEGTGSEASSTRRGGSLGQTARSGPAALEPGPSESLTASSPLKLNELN

Which Ki (read-out: absolute Ki) does the source give for `CCCc1c(NC(=O)CC(C)(C)C(=O)[O-])cccc1OCCCOc1cc(O)c(-c2ccc(F)cc2)cc1CC.[Na+]` [Example 2, Sodium 4-[[3-[3-[2-ethyl-4-(4-fluorophenyl)-5-hydroxy-phenoxy]propoxy]-2-propyl-phenyl]amino]-2,2-dimethyl-4-oxo-butanoate] here?
Its Ki is 5.5 nM.

What about the Ki (read-out: relative Ki) of the same molecule?
Its Ki is 10.4 nM.
